Laboratory results: ChEMBL document CHEMBL1140614, “In silico and in vitro filters for the fast estimation of skin permeation and distribution of new chemical entities” (J Med Chem, 2007)

Assays:
Zone of skin = settings: human
physchem = settings: octanol/water
[1] = PAMPA, 7 h
[2] = octanol/water

Row | Structure (SMILES) | log Kp (Zone of skin) | logP (physchem) | further results
1 | CCc1ccc(O)cc1 | -5.01 | 2.47 | 
2 | Nc1cc([N+](=O)[O-])ccc1O [2-AMINO-4-NITROPHENOL] | -6.62 |  | 
3 | O=C(O)CCCCc1ccccc1 [5-PHENYLVALERIC ACID] |  | 2.85 | 
4 | Cc1cc(=O)n(-c2ccccc2)n1C [ANTIPYRINE] | -7.74 |  | 
5 | CCNc1nc(Cl)nc(NC(C)C)n1 [ATRAZINE] | -5.56 |  | 
6 | O=C(O)c1ccccc1 [BENZOIC ACID] | -5.08 |  | 
7 | O=C(OCc1ccccc1)c1cccnc1 [BENZYL NICOTINATE] | -5.35 |  | 
8 | C[C@H]1C[C@H]2[C@@H]3CCC4=CC(=O)C=C[C@]4(C)[C@@]3(F)[C@@H](O)C[C@]2(C)[C@@]1(O)C(=O)CO [BETAMETHASONE] |  | 2.01 | 
9 | Oc1ccc2ccccc2c1 [BETANAPHTHOL] | -5.11 |  | log Pe [1]: -4.19
10 | Cn1c(=O)c2c(ncn2C)n(C)c1=O [CAFFEINE] | -7.56 |  | log Pe [1]: -5.63
11 | O=C(O)Cc1ccccc1Nc1c(Cl)cccc1Cl [DICLOFENAC] | -5.3 |  | 
12 | C/C=C(/C(=C/C)c1ccc(O)cc1)c1ccc(O)cc1 [DIENESTROL] |  | 4.5 | 
13 | CN[C@@H](C)[C@H](O)c1ccccc1 [EPHEDRINE] | -5.75 |  | 
14 | CC(C(=O)O)c1ccc(-c2ccccc2)c(F)c1 (centres undefined) [FLURBIPROFEN] |  | 3.99 | 
15 | COc1ccc2c(c1)c(CC(=O)O)c(C)n2C(=O)c1ccc(Cl)cc1 [INDOMETHACIN] | -5.39 |  | logP [2]: 4.27
16 | c1ccc2cnccc2c1 [ISOQUINOLINE] | -5.33 |  | 
17 | CC(C(=O)O)c1cccc(C(=O)c2ccccc2)c1 (centres undefined) [KETOPROFEN] | -4.7 |  | 

Row | Structure (SMILES) | log Kp (Zone of skin) | logP (physchem) | further results
18 | COC(=O)c1cccnc1 [METHYL NICOTINATE] | -6.04 | 0.87 | 
19 | CN1CCC[C@H]1c1cccnc1 [NICOTINE] | -5.26 |  | log Pe [1]: -4.58
20 | Cc1ccccc1O [ORTHOCRESOL] | -5.36 | 1.94 | 
21 | O=[N+]([O-])c1ccc(O)cc1 [P-NITROPHENOL] | -5.81 |  | 
22 | Oc1ccc(Cl)cc1 [PARACHLOROPHENOL] | -5 |  | 
23 | CCC1(c2ccccc2)C(=O)NC(=O)NC1=O [PHENOBARBITAL] | -6.9 |  | 
24 | Oc1ccccc1 [PHENOL] | -5.64 |  | log Pe [1]: -4.14
25 | CN1C(C(=O)Nc2ccccn2)=C(O)c2ccccc2S1(=O)=O [PIROXICAM] | -6.02 |  | 
26 | CC(=O)[C@H]1CC[C@H]2[C@@H]3CCC4=CC(=O)CC[C@]4(C)[C@H]3CC[C@]12C [PROGESTERONE] | -5.08 |  | log Pe [1]: -4.56
27 | CC(C)NCC(O)COc1cccc2ccccc12 (centres undefined) [PROPRANOLOL] |  |  | log Pe [1]: -4.25
28 | c1ccncc1 [PYRIDINE] |  |  | log Pe [1]: -4.35
29 | O=C(O)c1ccccc1O [SALYCILIC ACID] |  |  | log Pe [1]: -4.16
30 | C[C@]12CCC(=O)C=C1CC[C@@H]1[C@@H]2CC[C@@]2(C)[C@H]1CC[C@@]21CCC(=O)O1 [SPRIOLACTONE] |  | 2.26 | 
31 | Nc1ccc(S(=O)(=O)NC(=O)c2ccccc2)cc1 [SULFABENZAMIDE] |  | 1.46 | 
32 | NC(=O)NS(=O)(=O)c1ccc(N)cc1 [SULFACARBAMIDE] |  | -1.1 | 
33 | Nc1ccc(S(=O)(=O)Nc2ncccn2)cc1 [SULFADIAZINE] |  | -0.12 | log Pe [1]: -6.2
34 | Cc1ccc(C(C)C)c(O)c1 [THYMOL] | -4.83 |  | 
